PubChem BioAssay AID1996
Values after ≈ are worked out from the molar mass of the structure shown.

details: buffer; pH 7.4; 200.0 µM

solubility kinetic [µg/mL] | Compound
40.4 (≈ 131 µM) | O=C1CCC(=O)N1CC(=O)N(c1ccccc1)c1ccccc1
0.8 (≈ 2.08 µM) | CCOc1cc(C(=O)NC(C)CCc2ccccc2)cc(OCC)c1OCC (centres undefined)
> 44.8 | CC12CC3CC(C)(C1)CC(C(=O)NCc1cccnc1)(C3)C2
0.7 (≈ 2.14 µM) | COc1ccc(OC)c(NC(=O)NC2CCCc3ccccc32)c1 (centres undefined)
44.3 (≈ 146 µM) | O=C(CCNC(=O)c1ccccc1Cl)Nc1ccncc1
< 0.6 | CCCCN(C)Cc1cc(=O)oc2cc3c(cc12)CCCC3
> 37.2 | CN1CC(=O)N/C1=N\C(=O)Nc1ccc(O)cc1
53.5 (≈ 139 µM) | CCN1CCN(C(=O)c2cc(-c3ccc(Cl)s3)nc3ccccc23)CC1
30.2 | Cc1csc(Nc2ccccc2)[n+]1C.[Br-]
> 50.4 | O=C(O)c1cn(-c2ccc(F)cc2)c2cc(Cl)c(F)cc2c1=O
< 0.1 | CSc1nc(-c2ccc(Cl)cc2)nc(N)c1C#N
> 58.3 | CC(C)[C@H](NC(=O)N1CC(=O)Nc2ccccc21)C(=O)N1CCC[C@@H]1C(=O)O
1.6 (≈ 5.58 µM) | CC(=O)Nc1cc(-c2nc3ccccc3o2)ccc1Cl
2.5 (≈ 8.26 µM) | CC1CCC(NC(=O)c2cc(Cl)nc3ccccc23)CC1 (centres undefined)
17.1 (≈ 61.9 µM) | CC(C)(C)NC(=S)Nc1cccc(C(F)(F)F)c1
> 59 | N#CC1(NC(=O)CN2C(=O)NC(Cc3c[nH]c4ccccc34)C2=O)CCCCC1 (centres undefined)
> 44 | CCC(=O)Nc1ccc(C2C(=O)c3ccccc3C2=O)cc1
53.6 (≈ 147 µM) | Cc1sc2ncnc(SCC(=O)N3CCCC(C(N)=O)C3)c2c1C (centres undefined)
1 (≈ 3.48 µM) | CCOC(=O)c1ccc(Nc2ncccc2[N+](=O)[O-])cc1

solubility kinetic [µg/mL] | Compound
> 42 | COc1cc(CO)ccc1OCc1ccc(Cl)nc1
48.8 (≈ 146 µM) | O=C(NCCN1CCOCC1)C1CC(=O)N(c2ccc(F)cc2)C1 (centres undefined)
> 42.2 | CCC(C(=O)OC)(C(=O)OC)c1ccc([N+](=O)[O-])cc1
> 44 | Nc1cc(=O)[nH]c(SCC(=O)c2ccc(O)cc2O)n1
> 45.3 | O=C(NCCN1CCOCC1)c1cc2ccccc2oc1=O
1.1 (≈ 3.51 µM) | Cn1c(=O)n(CCOc2ccc([N+](=O)[O-])cc2)c2ccccc21
2.4 (≈ 8.75 µM) | O=C1C(c2ccccc2)NC(=S)N1C1CCCCC1 (centres undefined)
1.6 (≈ 6.05 µM) | O=C(Nc1ccc(F)cc1)NC1CCCCCCC1
0.5 (≈ 1.44 µM) | CC1=C(C(=O)OCC2CCCCC2)C(c2ccc(F)cc2)NC(=O)N1 (centres undefined)
> 42.2 | CCOc1ccc(CNc2nc3ccccc3n2C)cc1
> 45.1 | COC(=O)c1cc(S(=O)(=O)NCc2cccs2)c[nH]1
> 42 | COc1ccc(C2NC(=O)CCC2[N+](=O)[O-])cc1OC (centres undefined)
< 0.1 | CN(C)c1nc(Nc2ccc(Cl)c(Cl)c2)nc(N(C)C)n1
7.3 (≈ 14.7 µM) | O=C(COC(=O)/C=C/c1ccc(OC(F)F)cc1)Nc1cccc(S(=O)(=O)N2CCOCC2)c1
18.4 (≈ 69.6 µM) | CCCCNC(=S)Nc1ccc2[nH]c(=O)[nH]c2c1
> 32.9 | COC(=O)c1cccc(N2CCCC2=O)c1
30.2 (≈ 101 µM) | CCOC(=O)C(=O)Nc1ccc(OCc2ccccc2)cc1
> 41.4 | CC(C)C(=O)Nc1ccc([N+](=O)[O-])c(C(F)(F)F)c1
> 56 | CCOc1ccc(NC(=O)N(C2CCCC2)C2CCN(C(C)=O)CC2)cc1

solubility kinetic [µg/mL] | Compound
> 43.4 | O=C(CNC(=O)c1ccccc1F)N/N=C/c1ccco1
> 46.1 | O=C(COC(=O)c1c[nH]c(=O)[nH]c1=O)Nc1ccccc1F
32.6 (≈ 146 µM) | O=C(NC1CCCC1)c1cccc(Cl)c1
2.9 (≈ 7.37 µM) | Cc1ccc2[nH]c(=O)c(CN(C(=O)c3cccc([N+](=O)[O-])c3)C(C)(C)C)cc2c1
45.1 (≈ 136 µM) | CCN(CC)c1nc(N)n(CCSC(=S)N(C)C)c(=O)n1
1.8 (≈ 4.93 µM) | O=C(CN1C(=O)CCC1=O)Nc1nc(-c2ccc3ccccc3c2)cs1
> 43 | COc1ccccc1OCC#CCSc1ncccn1
49 (≈ 150 µM) | CS(=O)(=O)N1CCN(C(=O)Cc2ccc([N+](=O)[O-])cc2)CC1
35.9 (≈ 92.4 µM) | Cc1ccc(S(=O)(=O)CCC(=O)N2CCN(c3ccccc3O)CC2)cc1
28 (≈ 110 µM) | CC(C)(C)c1ccc(C(=O)Nc2cccnc2)cc1
7.7 (≈ 23.7 µM) | Nc1cc(Cl)ccc1C(=O)OCC(=O)NCc1cccs1
> 49.1 | Cc1ccc(OCC(=O)NCCCNC(=O)c2ccncc2)cc1
> 46.6 | O=S(=O)(/N=C(\[O-])C[n+]1ccccc1)c1ccc(Cl)cc1
> 51.8 | Cc1nc(SCC(=O)O)c(C#N)c(-c2ccco2)c1C(=O)N(C)C
1.2 (≈ 3.54 µM) | COC(=O)c1cn(C(=O)c2ccc(OC)c(OC)c2)c2ccccc12
> 38.4 | CC(=O)Nc1ccc(Nc2nc(C)cc(C)n2)cc1
7.9 (≈ 16.9 µM) | COc1ccc(N(C)S(=O)(=O)c2cccc(C(=O)OCC(=O)N(C)c3ccccc3)c2)cc1
2.6 (≈ 5.98 µM) | COc1ccc(NS(=O)(=O)c2ccc(Cl)c(NC(=O)c3ccccc3F)c2)cc1
< 0.1 | Cc1cccc(Nc2c([N+](=O)[O-])ccc3nonc23)c1

Compound | solubility kinetic [µg/mL]
CNCCc1ccccc1 | < 0.3
O=C(O)C(=O)O.O=C(c1ccco1)N1CCN(Cc2ccccc2F)CC1 | 33.9
